The molecules below were run against Human TASK-1 channels (Homo sapiens (Human), UniProt O14649) (assay: Activity on the TASK-1 channel in Xenopus oocytes (two-microelectrode voltage clamp)). Settings: not given.
Sequence of Human TASK-1 channels (O14649 whole entry): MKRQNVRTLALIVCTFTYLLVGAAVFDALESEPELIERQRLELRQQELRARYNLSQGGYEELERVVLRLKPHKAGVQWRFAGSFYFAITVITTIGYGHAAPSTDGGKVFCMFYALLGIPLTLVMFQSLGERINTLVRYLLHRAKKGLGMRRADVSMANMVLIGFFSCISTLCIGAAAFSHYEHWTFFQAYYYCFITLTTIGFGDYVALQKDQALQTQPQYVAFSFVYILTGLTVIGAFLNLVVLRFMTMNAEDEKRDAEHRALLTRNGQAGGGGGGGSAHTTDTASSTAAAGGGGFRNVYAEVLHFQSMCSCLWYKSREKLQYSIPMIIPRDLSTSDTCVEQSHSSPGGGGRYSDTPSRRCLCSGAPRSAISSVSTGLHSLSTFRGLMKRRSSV
Type: cell-based
Experimental: Human TASK-1 channels were expressed in Xenopus oocytes. For this purpose, oocytes were isolated from Xenopus laevis and defoliculated. Subsequently, TASK-1-encoding RNA synthesized in vitro was injected into oocytes. […] Data were acquired and analyzed using a TEC-10cx amplifier (NPI Electronic, Tamm, Germany) connected to an ITC-16 interface (Instrutech Corp., Long Island, USA) and Pulse software (HEKA Elektronik, Lambrecht, Germany). […] Oocytes were continuously superfused with ND96 buffer containing: NaCl 96 mM, KCl 2 mM, CaCl2 1.8 mM, MgCl2 1 mM, HEPES 5 mM (pH adjusted to 7.4 with NaOH). All experiments were performed at room temperature.
Test substances were consecutively added to the bath solution at rising concentrations. […] IC50 values were obtained by fitting the data to the general dose-response equation.
CC(=O)N1CCc2c(c(-c3cccc(Cl)c3)nn2Cc2ccc(Cl)s2)C1 [Example 6aj, 1-[3-(3-Chloro-phenyl)-1-(5-chloro-thiophen-2-ylmethyl)-1,4,6,7-tetrahydro-pyrazolo[4,3-c]pyridin-5-yl]-ethanone] was tested, and the inhibition at 5 µM was 76%. With CC(=O)N1CCc2c(c(-c3cccc(C)c3)nn2Cc2ccc(F)cc2F)C1 [Example 6az, 1-[1-(2,4-Difluoro-benzyl)-3-m-tolyl-1,4,6,7-tetrahydro-pyrazolo[4,3-c]pyridin-5-yl]-ethanone] the inhibition at 5 µM was 89%. In the case of CC(=O)N1CCc2c(c(-c3cccc(C(F)(F)F)c3)nn2Cc2ccc(C)cc2F)C1 [Example 6bn, 1-[1-(2-Fluoro-4-methyl-benzyl)-3-(3-trifluoromethyl-phenyl)-1,4,6,7-tetrahydro-pyrazolo[4,3-c]pyridin-5-yl]-ethanone], the inhibition at 5 µM is reported as 81%. In the case of CC(=O)N1CCc2c(c(-c3cccc(C)c3)nn2Cc2ccccc2F)C1 [Example 6bb, 1-[1-(2-Fluoro-benzyl)-3-m-tolyl-1,4,6,7-tetrahydro-pyrazolo[4,3-c]pyridin-5-yl]-ethanone], the inhibition at 5 µM is reported as 82%. COc1cccnc1Cn1nc(-c2cccc(C(F)(F)F)c2)c2c1CCN(C(C)=O)C2 [Example 6s, 1-[1-(3-Methoxy-pyridin-2-ylmethyl)-3-(3-trifluoromethyl-phenyl)-1,4,6,7-tetrahydro-pyrazolo[4,3-c]pyridin-5-yl]-ethanone] gave an inhibition at 5 µM of 83%. With COCC(=O)N1CCc2c(c(-c3cccc(C#N)c3)nn2Cc2ccc(F)cc2F)C1 [Example 8n, 3-[1-(2,4-Difluoro-benzyl)-5-(2-methoxy-acetyl)-4,5,6,7-tetrahydro-1H-pyrazolo[4,3-c]pyridin-3-yl]-benzonitrile] the inhibition at 5 µM was 80%. Work on CC(=O)N1CCc2c(c(-c3cccc(Cl)c3)nn2Cc2ccc(F)cc2C)C1 [Example 6ba, 1-[3-(3-Chloro-phenyl)-1-(4-fluoro-2-methyl-benzyl)-1,4,6,7-tetrahydro-pyrazolo[4,3-c]pyridin-5-yl]-ethanone] yielded an inhibition at 5 µM of 81%. For CC(=O)N1CCc2c(c(-c3cc(C)ccn3)nn2Cc2ccc(F)cc2F)C1 [Example 6x, 1-[1-(2,4-Difluoro-benzyl)-3-(4-methyl-pyridin-2-yl)-1,4,6,7-tetrahydro-pyrazolo[4,3-c]pyridin-5-yl]-ethanone], the inhibition at 5 µM was 82%. Work on CC(=O)N1CCc2c(c(-c3ccsc3)nn2Cc2ccc(F)cc2F)C1 [Example 6al, 1-[1-(2,4-Difluoro-benzyl)-3-thiophen-3-yl-1,4,6,7-tetrahydro-pyrazolo[4,3-c]pyridin-5-yl]-ethanone] yielded an inhibition at 5 µM of 75%. With CC(=O)N1CCc2c(c(-c3cccc(C(F)(F)F)c3)nn2Cc2nccs2)C1 [Example 6ae, 1-[1-Thiazol-2-ylmethyl-3-(3-trifluoromethyl-phenyl)-1,4,6,7-tetrahydro-pyrazolo[4,3-c]pyridin-5-yl]-ethanone] the inhibition at 5 µM was 84%. CN(C)C(=O)N1CCc2c(c(-c3cccc(C#N)c3)nn2Cc2ccc(F)cc2F)C1 [Example 12d, 3-(3-Cyano-phenyl)-1-(2,4-difluoro-benzyl)-1,4,6,7-tetrahydro-pyrazolo[4,3-c]pyridine-5-carboxylic acid dimethylamide] showed an inhibition at 5 µM of 74%. CC(=O)N1CCc2c(c(-c3cccc(C#N)c3)nn2Cc2ccc(Cl)s2)C1 [Example 6ai, 3-[5-Acetyl-1-(5-chloro-thiophen-2-ylmethyl)-4,5,6,7-tetrahydro-1H-pyrazolo[4,3-c]pyridin-3-yl]-benzonitrile] showed an inhibition at 5 µM of 79%.

Same assay, conditions: human TASK-1 expressed in Xenopus oocytes, currents during pulses to 40 mV, room temperature
Work on COc1cccc(Cn2nc(-c3cccc(Cl)c3)c3c2CCN(C(C)=O)C3)c1 [Example 6bd, 1-[3-(3-Chloro-phenyl)-1-(3-methoxy-benzyl)-1,4,6,7-tetrahydro-pyrazolo[4,3-c]pyridin-5-yl]-ethanone] yielded an IC50 of less than 10 µM. Molecule CC(=O)N1CCc2c(c(-c3ccc(F)cc3)nn2Cc2ccc(F)cc2F)C1 [Example 6f, 1-[1-(2,4-Difluoro-benzyl)-3-(4-fluoro-phenyl)-1,4,6,7-tetrahydro-pyrazolo[4,3-c]pyridin-5-yl]-ethanone] has an IC50 of 0.598 µM. Work on CC(=O)N1C2CCC1c1c(-c3ccc(F)cc3)nn(Cc3ccc(F)cc3F)c1C2 (stereo not shown) [Example 6o, 1-[5-(2,4-Difluoro-benzyl)-3-(4-fluoro-phenyl)-4,5,11-triaza-tricyclo [6.2.1.02,6]undeca-2(6),3-dien-11-yl]-ethanone] yielded an IC50 of less than 10 µM. Work on O=C(c1ccc(F)cc1)N1CCc2c(c(-c3ccc(F)cc3)nn2Cc2ccccc2)C1 [Example 8f, [1-Benzyl-3-(4-fluoro-phenyl)-1,4,6,7-tetrahydro-pyrazolo[4,3-c]pyridin-5-yl]-(4-fluoro-phenyl)-methanone] yielded an IC50 of 1.28 µM. COc1ccc(C(=O)N2CCc3c(c(-c4ccc(F)cc4)nn3Cc3ccccc3)C2)cc1 [Example 8g, [1-Benzyl-3-(4-fluoro-phenyl)-1,4,6,7-tetrahydro-pyrazolo[4,3-c]pyridin-5-yl]-(4-methoxy-phenyl)-methanone] gave an IC50 of 3.26 µM. In the case of CC(=O)N1CCc2c(c(-c3ccc(F)cc3)nn2C(c2ccc(F)cc2)C2CC2)C1 (stereo not shown) [Example 6ao, 1-[1-[Cyclopropyl-(4-fluoro-phenyl)-methyl]-3-(4-fluoro-phenyl)-1,4,6,7-tetrahydro-pyrazolo[4,3-c]pyridin-5-yl]-ethanone], the IC50 is reported as 0.258 µM. In the case of CC(=O)N1CCc2c(c(-c3ccc(F)c(C#N)c3)nn2Cc2ccc(F)cc2F)C1 [Example 6bi, 5-[5-Acetyl-1-(2,4-difluoro-benzyl)-4,5,6,7-tetrahydro-1H-pyrazolo[4,3-c]pyridin-3-yl]-2-fluoro-benzonitrile], the IC50 is reported as 1.65 µM. CCC(=O)N1CCc2c(c(-c3cccc(C#N)c3)nn2Cc2ccc(F)cc2F)C1 [Example 8p, 3-[1-(2,4-Difluoro-benzyl)-5-propionyl-4,5,6,7-tetrahydro-1H-pyrazolo[4,3-c]pyridin-3-yl]-benzonitrile] gave an IC50 of 0.53 µM. With N#Cc1cccc(-c2nn(Cc3ccc(F)cc3F)c3c2CN(C(=O)c2ccccn2)CC3)c1 [Example 8t, 3-[1-(2,4-Difluoro-benzyl)-5-(pyridine-2-carbonyl)-4,5,6,7-tetrahydro-1H-pyrazolo[4,3-c]pyridin-3-yl]-benzonitrile] the IC50 was 0.246 µM. Work on CC(=O)N1CCc2c(c(-c3cccc(C(F)(F)F)c3)nn2Cc2ccc(Cl)nc2)C1 [Example 6b, 1-[1-(6-Chloro-pyridin-3-ylmethyl)-3-(3-trifluoromethyl-phenyl)-1,4,6,7-tetrahydro-pyrazolo[4,3-c]pyridin-5-yl]-ethanone] yielded an IC50 of 0.172 µM. N#Cc1cccc(-c2nn(Cc3ccc(F)cc3F)c3c2CN(C(=O)C2CC2)CC3)c1 [Example 8c, 3-[5-Cyclopropanecarbonyl-1-(2,4-difluoro-benzyl)-4,5,6,7-tetrahydro-1H-pyrazolo[4,3-c]pyridin-3-yl]-benzonitrile] was tested, and the IC50 was 0.047 µM. Work on CC(=O)N1CCc2c(c(-c3cccc(C(F)(F)F)n3)nn2Cc2ccc(F)cc2F)C1 [Example 6i, 1-[1-(2,4-Difluoro-benzyl)-3-(6-trifluoromethyl-pyridin-2-yl)-1,4,6,7-tetrahydro-pyrazolo[4,3-c]pyridin-5-yl]-ethanone] yielded an IC50 of 0.216 µM. Work on CC(=O)N1CCc2c(c(-c3cccc(C(F)(F)F)n3)nn2Cc2ccc(F)cc2)C1 [Example 6g, 1-[1-(4-Fluoro-benzyl)-3-(6-trifluoromethyl-pyridin-2-yl)-1,4,6,7-tetrahydro-pyrazolo[4,3-c]pyridin-5-yl]-ethanone] yielded an IC50 of 0.0995 µM.

— patent US9127001B2, “Substituted 4,5,6,7-tetrahydro-1H-pyrazolo[4,3-c]pyridines, their use as medicament, and pharmaceutical preparations comprising them” (Sanofi, priority 2011, dated 2015)
